Key:
[1] = test system: IL-1β secretion of THP-1 cells; experiment: Effect of NLRP3 inhibitor on IL-1β secretion of THP-1 cells (AlphaLISA); assay type: cell-based; conditions: Homo sapiens; PMA, LPS and Nigericin stimulated THP-1 cells, IL-1β in supernatant; read-out: IC50 (nM), THP-1 cells to detect NLRP3 inhibitors
hERG ion channel = molecular target: T1, hERG ion channel (Homo sapiens, UniProt Q12809); experiment: hERG ion channel inhibition, manual patch clamp in HEK293 cells; assay type: cell-based; conditions: HEK293 cells stably expressing hERG, read-out: hERG(IC50, manupatch)
T1 construct: host or cells: HEK293
T1 sequence (Q12809 whole entry): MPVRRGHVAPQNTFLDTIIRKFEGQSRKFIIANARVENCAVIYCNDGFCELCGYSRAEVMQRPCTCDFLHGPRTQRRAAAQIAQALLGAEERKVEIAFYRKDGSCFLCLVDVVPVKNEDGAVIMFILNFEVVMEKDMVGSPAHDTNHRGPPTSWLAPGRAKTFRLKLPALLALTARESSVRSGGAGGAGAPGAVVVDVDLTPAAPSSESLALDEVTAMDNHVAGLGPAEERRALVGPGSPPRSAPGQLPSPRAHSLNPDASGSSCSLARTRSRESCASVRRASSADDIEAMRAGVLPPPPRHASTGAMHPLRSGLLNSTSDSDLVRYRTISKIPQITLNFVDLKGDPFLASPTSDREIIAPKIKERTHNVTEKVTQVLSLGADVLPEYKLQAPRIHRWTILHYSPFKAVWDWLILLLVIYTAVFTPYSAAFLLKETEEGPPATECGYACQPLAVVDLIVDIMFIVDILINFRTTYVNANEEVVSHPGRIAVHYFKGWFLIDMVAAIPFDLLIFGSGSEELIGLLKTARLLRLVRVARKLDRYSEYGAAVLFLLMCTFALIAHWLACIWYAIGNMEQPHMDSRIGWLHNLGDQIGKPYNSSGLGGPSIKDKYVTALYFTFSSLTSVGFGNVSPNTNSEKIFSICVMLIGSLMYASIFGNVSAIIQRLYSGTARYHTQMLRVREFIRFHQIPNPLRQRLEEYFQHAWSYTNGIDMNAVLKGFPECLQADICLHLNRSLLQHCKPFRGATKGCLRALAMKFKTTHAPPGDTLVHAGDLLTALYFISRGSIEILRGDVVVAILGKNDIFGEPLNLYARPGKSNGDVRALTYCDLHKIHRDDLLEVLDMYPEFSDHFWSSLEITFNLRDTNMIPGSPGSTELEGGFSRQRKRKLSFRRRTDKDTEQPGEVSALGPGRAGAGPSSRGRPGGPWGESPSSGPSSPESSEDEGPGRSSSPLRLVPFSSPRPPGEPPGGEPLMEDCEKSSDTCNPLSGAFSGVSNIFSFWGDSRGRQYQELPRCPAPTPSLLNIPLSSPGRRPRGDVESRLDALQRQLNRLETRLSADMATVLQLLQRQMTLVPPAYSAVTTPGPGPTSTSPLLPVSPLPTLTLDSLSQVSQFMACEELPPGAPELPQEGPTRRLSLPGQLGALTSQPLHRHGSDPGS
Experimental: This experiment used manual patch clamp electrophysiology to detect the inhibitory effect of compounds on hERG ion channels, and evaluated cardiac safety based on the single concentration inhibition rate or IC50 size of the compounds.
The cells used in this experiment are HEK293 cell lines transfected with hERG cDNA and stably expressing hERG channels (#60187, provided by BPS, P3-P23 generations are used for experimental research). Cells were cultured in a medium containing the following components: MEM medium, 10% (v/v) inactivated fetal bovine serum, 1 mM sodium pyruvate, […] geneticin, 0.1 mM non-essential amino acids, and 100 U penicillin-streptomycin. HEK293 hERG cells were grown in culture flasks containing the above culture medium and cultured in an incubator at 37° C. and 5% CO2. […]
The electrophysiological experiments were performed by a manual patch clamp system (HEKAEPC-10 signal amplifier and digital conversion system, purchased from HEKA Electronics, Germany) to record the whole-cell current. […] After the hERG current recorded in the above steps reaches stability under continuous perfusion of extracellular fluid in the recording tank, different concentrations of the test compound can be perfused until the inhibitory effect of the drug on the hERG current reaches a stable state. […]

IC50 [1]: < 50 nM
Structure (SMILES): CC(=O)N1CCOC[C@H]1CNc1nc2nc(-c3c(C)cc(C(F)(F)F)cc3O)ccc2o1 [Compound 111]
IC50 (hERG ion channel): > 30 µM
